Reference: US9067934B2, “Bicyclic pyridinones” (Pfizer Inc., priority 2011, dated 2015)
Structures can show the parent of a compound that is named as a salt. Where two headings read alike, the source gives them in different places.

Test system: production of amyloid beta protein Aβ(1-42) (γ-secretase) in human WT-APP overexpressing CHO cells
Experiment: Cell-Based γ-Secretase Assay with ELISA Readout
Details: read-out: Aβ 42B IC50 (Geometric Mean of 2-6 Determinations)
Method in brief: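 Human WT-APP-overexpressing CHO cells were pre-cultured 24 h at 37° C, then exposed to compounds (eleven-point half-log series, 1% final DMSO) for ~24 h. Aβ(1-42) in conditioned media was captured with Aβ(1-42)-specific antibody and detected with Eu-labeled 6e10 by DELFIA TRF. IC50 by nonlinear regression against min/max inhibition controls.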

[1] = human WT-APP overexpressing CHO cells, ~24 hours at 37° C., Aβ(1-42) ELISA, footnotes: a = geometric mean of >15 determinations, b = single determination, c = geometric mean of 7-15 determinations

SMILES | IC50 [1] | IC50 (CHO, 24 h)
Cc1cccc(-c2ccccc2OCCN2CCn3c(ccc(-n4cnc(C)c4)c3=O)C2=O)c1 [Example 95, 2-{2-[(3′-methylbiphenyl-2-yl)oxy]ethyl}-7-(4-methyl-1H-imidazol-1-yl)-3,4-dihydro-2H-pyrido[1,2-a]pyrazine-1,6-dione, formate salt] | 143 nM | 
Cc1cn(-c2ccc3n(c2=O)CCN(CCOc2cccc4cc(F)c(F)cc24)C3=O)cn1 [Example 96, 2-{2-[(6,7-difluoronaphthalen-1-yl)oxy]ethyl}-7-(4-methyl-1H-imidazol-1-yl)-3,4-dihydro-2H-pyrido[1,2-a]pyrazine-1,6-dione, trifluoroacetate salt] | 48.2 nM | 
Cc1cn(-c2ccc3n(c2=O)CCN(CCOc2cccc4nc(C(F)(F)F)sc24)C3=O)cn1 [Example 97, 7-(4-methyl-1H-imidazol-1-yl)-2-(2-{[2-(trifluoromethyl)-1,3-benzothiazol-7-yl]oxy}ethyl)-3,4-dihydro-2H-pyrido[1,2-a]pyrazine-1,6-dione, trifluoroacetate salt] | 21.3 nM | 
Cc1cn(-c2ccc3n(c2=O)CCN(CCOc2ccc(F)c4ccc(F)cc24)C3=O)cn1 [Example 98, 2-{2-[(4,7-difluoronaphthalen-1-yl)oxy]ethyl}-7-(4-methyl-1H-imidazol-1-yl)-3,4-dihydro-2H-pyrido[1,2-a]pyrazine-1,6-dione] | 19.4 nM | 
Cc1cn(-c2ccc3n(c2=O)CCN(CCOc2ncc(Cl)c4ccc(F)cc24)C3=O)cn1 [Example 99, 2-{2-[(4-chloro-7-fluoroisoquinolin-1-yl)oxy]ethyl}-7-(4-methyl-1H-imidazol-1-yl)-3,4-dihydro-2H-pyrido[1,2-a]pyrazine-1,6-dione, trifluoroacetate salt] | 25.3 nM | 
CCC(COc1ccc(Cl)cc1C(F)(F)F)N1CCn2c(ccc(-n3cnc(C)c3)c2=O)C1=O (stereo not shown) [Example 100, 2-{1-[4-chloro-2-(trifluoromethyl)phenoxy]butan-2-yl}-7-(4-methyl-1H-imidazol-1-yl)-3,4-dihydro-2H-pyrido[1,2-a]pyrazine-1,6-dione, trifluoroacetate salt] | 135 nM | 
Cc1cn(-c2ccc3n(c2=O)CCN(CCOc2cccc4[nH]c(C(F)(F)F)cc24)C3=O)cn1 [Example 101, 7-(4-methyl-1H-imidazol-1-yl)-2-(2-{[2-(trifluoromethyl)-1H-indol-4-yl]oxy}ethyl)-3,4-dihydro-2H-pyrido[1,2-a]pyrazine-1,6-dione] | 456 nM | 
Cc1cn(-c2ccc3n(c2=O)CCN(CCOc2cccc4c2cc(C(F)(F)F)n4C)C3=O)cn1 [Example 102, 7-(4-methyl-1H-imidazol-1-yl)-2-(2-{[1-methyl-2-(trifluoromethyl)-1H-indol-4-yl]oxy}ethyl)-3,4-dihydro-2H-pyrido[1,2-a]pyrazine-1,6-dione] | 33.7 nM | 
CCC(COc1ccc(F)cc1C(F)(F)F)N1CCn2c(ccc(-n3cnc(C)c3)c2=O)C1=O (stereo not shown) [Example 103, 2-{1-[4-fluoro-2-(trifluoromethyl)phenoxy]butan-2-yl}-7-(4-methyl-1H-imidazol-1-yl)-3,4-dihydro-2H-pyrido[1,2-a]pyrazine-1,6-dione] | 596 nM | 
Cc1cn(-c2ccc3n(c2=O)CCN(CCOc2ccccc2-c2nc(C(F)(F)F)ns2)C3=O)cn1 [Example 104, 7-(4-methyl-1H-imidazol-1-yl)-2-(2-{2-[3-(trifluoromethyl)-1,2,4-thiadiazol-5-yl]phenoxy}ethyl)-3,4-dihydro-2H-pyrido[1,2-a]pyrazine-1,6-dione] | 7.2 nM | 
Cc1cn(-c2ccc3n(c2=O)CCN(CCOc2ccc(F)cc2C(C)(C)C(F)(F)F)C3=O)cn1 [Example 105, 2-{2-[4-fluoro-2-(1,1,1-trifluoro-2-methylpropan-2-yl)phenoxy]ethyl}-7-(4-methyl-1H-imidazol-1-yl)-3,4-dihydro-2H-pyrido[1,2-a]pyrazine-1,6-dione] | 25.2 nM | 
Cc1cn(-c2ccc3n(c2=O)CCN(CCOc2ccccc2C24CC(C2)C4)C3=O)cn1 [Example 106, 2-{2-[2-(bicyclo[1.1.1]pent-1-yl)phenoxy]ethyl}-7-(4-methyl-1H-imidazol-1-yl)-3,4-dihydro-2H-pyrido[1,2-a]pyrazine-1,6-dione] | 27.4 nM | 
Cc1cn(-c2ccc3n(c2=O)CCN([C@@H](C)COc2ccc(Cl)cc2C(F)(F)F)C3=O)cn1 [Example 107, 2-{(2S)-1-[4-chloro-2-(trifluoromethyl)phenoxy]propan-2-yl}-7-(4-methyl-1H-imidazol-1-yl)-3,4-dihydro-2H-pyrido[1,2-a]pyrazine-1,6-dione] | 34.4 nM | 
Cc1cn(-c2ccc3n(c2=O)CCN(CCOc2cccc4c2CC(F)(F)C4)C3=O)cn1 [Example 108, 2-{2-[(2,2-difluoro-2,3-dihydro-1H-inden-4-yl)oxy]ethyl}-7-(4-methyl-1H-imidazol-1-yl)-3,4-dihydro-2H-pyrido[1,2-a]pyrazine-1,6-dione] | 46.8 nM | 
Cc1cn(-c2ccc3n(c2=O)CCN(CCOc2cccc4c2OC(F)(F)O4)C3=O)cn1 [Example 109, 2-{2-[(2,2-difluoro-1,3-benzodioxol-4-yl)oxy]ethyl}-7-(4-methyl-1H-imidazol-1-yl)-3,4-dihydro-2H-pyrido[1,2-a]pyrazine-1,6-dione] | 275 nM | 
Cc1cn(-c2ccc3n(c2=O)CCN(CCOc2ccc(Cl)cc2C24CC(C2)C4)C3=O)cn1 [Example 110, 2-{2-[2-(bicyclo[1.1.1]pent-1-yl)-4-chlorophenoxy]ethyl}-7-(4-methyl-1H-imidazol-1-yl)-3,4-dihydro-2H-pyrido[1,2-a]pyrazine-1,6-dione] | 14.5 nM | 
Cc1cn(-c2ccc3n(c2=O)CCCN(CCOc2ccc(Cl)cc2C(F)(F)F)C3=O)cn1 [Example 111, 2-{2-[4-chloro-2-(trifluoromethyl)phenoxy]ethyl}-8-(4-methyl-1H-imidazol-1-yl)-2,3,4,5-tetrahydropyrido[1,2-a][1,4]diazepine-1,7-dione] | 138 nM | 
Cc1cn(-c2ccc3n(c2=O)[C@@H](C)CN(CCOc2ccc(F)cc2C(F)(F)F)C3=O)cn1 [Example 112, (4S)-2-{2-[4-fluoro-2-(trifluoromethyl)phenoxy]ethyl}-4-methyl-7-(4-methyl-1H-imidazol-1-yl)-3,4-dihydro-2H-pyrido[1,2-a]pyrazine-1,6-dione] | 340 nM | 
O=C1c2ccc(-n3cnc(Cl)c3)c(=O)n2CCN1CCOc1ccc(Cl)cc1C(F)(F)F [Example 113, 7-(4-chloro-1H-imidazol-1-yl)-2-{2-[4-chloro-2-(trifluoromethyl)phenoxy]ethyl}-3,4-dihydro-2H-pyrido[1,2-a]pyrazine-1,6-dione] | 292 nM | 
O=C1c2ccc(-n3cnc(Cl)c3)c(=O)n2CCN1CCOc1ccccc1C(F)(F)F [Example 114, 7-(4-chloro-1H-imidazol-1-yl)-2-{2-[2-(trifluoromethyl)phenoxy]ethyl}-3,4-dihydro-2H-pyrido[1,2-a]pyrazine-1,6-dione] | 1320 nM | 
Cc1cc(-c2ccc3n(c2=O)CCN(CCOc2cccc4ccc(F)cc24)C3=O)ccn1 [Example 115, 2-{2-[(7-fluoronaphthalen-1-yl)oxy]ethyl}-7-(2-methylpyridin-4-yl)-3,4-dihydro-2H-pyrido[1,2-a]pyrazine-1,6-dione] | 489 nM | 
Cc1cc(-c2ccc3n(c2=O)CCN(CCOc2ccc(Cl)cc2C(F)(F)F)C3=O)ccn1 [Example 116, 2-{2-[4-chloro-2-(trifluoromethyl)phenoxy]ethyl}-7-(2-methylpyridin-4-yl)-3,4-dihydro-2H-pyrido[1,2-a]pyrazine-1,6-dione] | 3490 nM | 
Cc1cn(-c2ccc3n(c2=O)CCN([C@@H](C)COc2ccc(Cl)cc2C(C)(C)C(F)(F)F)C3=O)cn1 [Example 117, 2-{(2S)-1-[4-Chloro-2-(1,1,1-trifluoro-2-methylpropan-2-yl)phenoxy]propan-2-yl}-7-(4-methyl-1H-imidazol-1-yl)-3,4-dihydro-2H-pyrido[1,2-a]pyrazine-1,6-dione] | 3.54 nM | 
Cc1cn(-c2ccc3n(c2=O)CCN([C@@H](C)COc2ccc(F)cc2[C@@H](C)C(F)(F)F)C3=O)cn1 [Example 118, 2-[(2S)-1-{4-Fluoro-2-[(2R)-1,1,1-trifluoropropan-2-yl]phenoxy}propan-2-yl]-7-(4-methyl-1H-imidazol-1-yl)-3,4-dihydro-2H-pyrido[1,2-a]pyrazine-1,6-dione] | < 6.64 nM | 
Cc1cn(-c2ccc3n(c2=O)CCN([C@@H](C)COc2ccc(Cl)cc2S(F)(F)(F)(F)F)C3=O)cn1 [Example 119, 2-{(2S)-1-[4-Chloro-2-(pentafluoro-λ^6-sulfanyl)phenoxy]propan-2-yl}-7-(4-methyl-1H-imidazol-1-yl)-3,4-dihydro-2H-pyrido[1,2-a]pyrazine-1,6-dione] | 7.49 nM | 
Cc1cn(-c2ccc3n(c2=O)CCN([C@@H](C)COc2ccccc2S(F)(F)(F)(F)F)C3=O)cn1 [Example 120, 7-(4-methyl-1H-imidazol-1-yl)-2-{(2S)-1-[2-(pentafluoro-λ^6-sulfanyl)phenoxy]propan-2-yl}-3,4-dihydro-2H-pyrido[1,2-a]pyrazine-1,6-dione] | 17.8 nM | 
Cc1cn(-c2ccc3n(c2=O)CCN(CCOc2ccccc2[Si](C)(C)C)C3=O)cn1 [Example 121, 7-(4-methyl-1H-imidazol-1-yl)-2-{2-[2-(trimethylsilyl)phenoxy]ethyl}-3,4-dihydro-2H-pyrido[1,2-a]pyrazine-1,6-dione] |  | 30.2 nM
Cc1cn(-c2ccc3n(c2=O)CCN(CCOc2ccc(F)cc2C2(C(F)(F)F)CCO2)C3=O)cn1 (stereo not shown) [Example 122, 2-(2-{4-fluoro-2-[2-(trifluoromethyl)oxetan-2-yl]phenoxy}ethyl)-7-(4-methyl-1H-imidazol-1-yl)-3,4-dihydro-2H-pyrido[1,2-a]pyrazine-1,6-dione, trifluoroacetate salt] | 85.6 nM | 
